The values that follow come from PMC6759476, “Prior Activation of 5-HT7 Receptors Modulates the Conditioned Place Preference With Methylphenidate” (Frontiers in Behavioral Neuroscience, 2019).

Structures are written as SMILES.

On the set-up of data set [1]: method as in Lacivita et al., 2016; Modica et al., 2018. The conditions noted are these: in vivo bio-distribution; ref Lacivita et al., 2016; Modica et al., 2018; cited from earlier work.
The target of data set [2] is 5-HT1A. More on the design: method as in Lacivita et al., 2016. The note with it: ref Lacivita et al., 2016; cited from earlier work.
Data set [3] concerns the target Alfa-1. Set-up: method as in Lacivita et al., 2016. The conditions noted are these: ref Lacivita et al., 2016; cited from earlier work.
Data set [4] addresses 5-HT6. Set-up: method as in Lacivita et al., 2016. The note with it: ref Lacivita et al., 2016; cited from earlier work.
The target of data set [5] is D2. More on the design: method as in Lacivita et al., 2016. The conditions noted are these: ref Lacivita et al., 2016; cited from earlier work.
For data set [6], the system named is rats. The experiment in a line: Conditioned place preference with MPH and TP-22. Type of data set: in vivo, rat (Wistar-Han). An excerpt: The experimental apparatus used for the CPP test is a Black/White Box (BWB; Adriani et al., [2012]), i.e., a Plexiglas box with smooth walls and floor (70 × 30 × 35 cm) composed of two environments separated by a central gray wall placed at a distance of about 35 cm from end walls. The walls on the longer sides are gray whereas those on the short margins can be distinguished by black or white color. To make the two environments more recognizable, we added additional visual cues: three horizontal white stripes to the black wall and three vertical black stripes to the white wall. On the central gray wall there is a door with an easily removable panel (partition), allowing the experimental subjects to pass (or not) from one compartment chamber to the other, when required.
On both longer sides of the box, there are two aluminum bars equipped with eight photocells connected by cables to a computer. The software in use is Cage controller 1.27 for Dark Light for Rat and Mouse® (PRS, Rome, Italy)^2, that allows to score for each subject:
• Motor activity (beam interruptions per second) in either chamber • Time spent in each chamber (both forepaws and hindpaws in a same chamber) • Transitions (number of times a subject crosses the door between the two chambers)
This test was carried out under dim light and required nine not consecutive days divided into four steps (Figures 2–4):
• Day 1, initial preference test. The spontaneous place preference of experimental subjects was tested in drug-free conditions. They were initially placed in the black chamber (chosen as starting room) and central door was open during the whole test (15 min). The triplet of rats residing in each home cage was tested at the same time. • Days 2–7, drug conditioning. On odd days all 18 subjects were injected with saline solution only and, after injection, immediately placed in the black chamber. […]
The dependent variable was calculated as final preference day minus initial preference day. […]

Data set [7] relates to mice. Set-up: method as in Galici et al., 2008; Waters et al., 2012. The note with it: ref Galici et al., 2008, Waters et al., 2012; cited from earlier work.
The test system of data set [8] is rats. More on the design: method as in Galici et al., 2008; Waters et al., 2012. The note with it: ref Galici et al., 2008, Waters et al., 2012; cited from earlier work.

For the compound `N#Cc1ccc(CNC(=O)CCCCCN2CCN(c3ccccc3-c3ccccc3)CC2)cc1` [LP-211, N-(4-cyanophenylmethyl)-4–(2-biphenyl)-1-piperazinehexanamide], in data set [1], the “brain Cmax” value was 540 ng/mL. Besides, the inhibition constant Ki in data set [2] was 379 nM; in data set [3] it was 22.6 nM; in data set [4] it was 1570 nM; in data set [5], 242 nM.
`COC(=O)C(c1ccccc1)C1CCCCN1` (stereo not shown) [MPH, methylphenidate]: the “locomotor activity on drug conditioning days (white chamber)” value in data set [6] (VEH then MPH 5 mg/kg i.v., vs saline control, P < 0.01) is “significantly enhanced”. In data set [6] (drug-free, VEH+MPH conditioned rats), the “activity rate, post-conditioning preference test minus initial test” value is listed as “negative during the entire session”. The “time spent in the white side, post-conditioning preference test” value in data set [6] (drug-free, VEH+MPH conditioned rats, first 05 min) is “slight preference for the white side”.
Turning to `CC1CCN(CC[C@H]2CCCN2S(=O)(=O)c2cccc(O)c2)CC1` [SB-269970], the amphetamine-induced hyperactivity entry in data set [7] and in data set [8] was “significantly attenuated” in each case.
